Laboratory results published in patent publication US10993933B2, “Oral dosage forms of bendamustine” (ASTELLAS DEUTSCHLAND GMBH, priority 2010, dated 2021).
Marks after values point to notes of the source that are not given here.

Assays:
[1] = Phase 1 crossover study, plasma pharmacokinetics after oral and i.v. bendamustine (Example 8)
Description: An open label, randomized two-way crossover study to assess the absolute bioavailability of oral bendamustine in patients with cancer was conducted to assess the absolute bioavailability of bendamustine administered as an oral formulation (example 2). Besides assessing the pharmacokinetics of bendamustine in plasma following oral and i.v. administration, a further objective was to evaluate the safety and tolerability of bendamustine following i.v. and especially oral administration of the formulation of example 2.
14 patients who were suffering from multiple myeloma, B-cell type chronic lymphocytic leukemia or advanced indolent non-Hodgkin's lymphoma were enrolled and were treated with bendamustine. […] After signing the informed consent form and following the screening period (days −21 to −2), eligible patients were assigned a patient number which was specific for each study site. Patients were randomized to receive one of the following on day 1 followed by the other on day 8: • a single oral dose of 110.2 mg (2×55.1 mg) bendamustine HCl • a single intravenous dose of 100 mg bendamustine HCl
Bendamustine was provided a) orally as capsules, a LFHC formulation (liquid-filled, hard-shell capsule) and b) intravenously as a solution after reconstituting a powder for the preparation of a solution for injection. The LFHC formulation (per capsule) was prepared from 55.1 mg bendamustine hydrochloride, 1.2 mg methylparaben, 0.12 mg […], 0.12 mg butylated hydroxytoluene, 10.9 mg ethanol and 532.56 mg CREMOPHOR RH40. The vial with powder for concentrate for solution was the marketed product in Germany (RIBOMUSTINE) which contains per vial 100 mg of bendamustine hydrochloride and mannitol as an excipient. This product was reconstituted with water for injection to a final concentration of 2.5 mg/ml of bendamustine HCl and was further diluted with 0.9% NaCl until about 500 ml before administration to the patient, in accordance with the instructions of the package insert.
Patients were admitted to the study site for 2 periods; days −1 to 2 (period 1) and days 7 to 9 (period 2). A total of 12 patients was to be randomized to receive treatment. Six patients were to receive treatment with a single oral dose of 110.2 mg (2×55.1 mg) bendamustine HCl (day 1) followed by a single intravenous dose of 100 mg bendamustine HCl (day 8) while 6 other patients were to receive treatment in the alternate order. Patients underwent a washout period of at least 7 days between treatments.
After oral and intravenous administration of bendamustine the concentration of bendamustine, as well as that of the active metabolites of bendamustine (M3 and M4), were determined in plasma and urine samples on day 1 and day 8. Patients returned to the study site for an end-of-study visit 7 to 14 days after completion of the second treatment period, or after early discharge/withdrawal. Subsequently the pharmacokinetic parameters of bendamustine and its metabolites were calculated.

[2] = Phase 1 crossover study, urine pharmacokinetics (Example 8); type: in vivo, human
Description: Urine pharmacokinetic parameters of bendamustine, M3 and M4 are presented in Table 27, Table 28 and Table 29, respectively. The percentage of the dose excreted in urine unchanged was low (2.6% and 2.1% for oral and intravenous bendamustine, respectively).

[3] = Stability of an aqueous solution of bendamustine as a function of pH; conditions: pH values higher than about 5
[4] = Phase 1 crossover study, safety and tolerability (Example 8); type: in vivo, human
[5] = M4 in plasma, Bendamustine HCl 100 mg intravenously, mean, n=11
[6] = M4 in plasma, Bendamustine HCl 110.2 mg orally, mean, n=11
[7] = M4 in urine, Bendamustine HCl 100 mg intravenously, mean, n=11
[8] = M4 in urine, Bendamustine HCl 100 mg intravenously, median, n=11
[9] = M4 in urine, Bendamustine HCl 100 mg intravenously, min-max, n=11
[10] = M4 in urine, Bendamustine HCl 110.2 mg orally, mean, n=10
[11] = M4 in urine, Bendamustine HCl 110.2 mg orally, median, n=10
[12] = M4 in urine, Bendamustine HCl 110.2 mg orally, min-max, n=10
[13] = bendamustine in urine, Bendamustine HCl 100 mg intravenously, mean, n=11
[14] = bendamustine in urine, Bendamustine HCl 100 mg intravenously, median, n=11
[15] = bendamustine in urine, Bendamustine HCl 100 mg intravenously, min-max, n=11
[16] = bendamustine in urine, Bendamustine HCl 110.2 mg orally, mean, n=11
[17] = bendamustine in urine, Bendamustine HCl 110.2 mg orally, median, n=11
[18] = bendamustine in urine, Bendamustine HCl 110.2 mg orally, min-max, n=11

Compound `O=C(O)CCCc1nc2cc(N(CCCl)CCCl)ccc2[nH]1` [Batch M4, N-desmethylbendamustine] has an AUCinf [1, 5] of 42.5 ng·h/mL, an AUClast [1, 5] of 40.8 ng·h/mL and a Cmax [1, 5] of 33.6 ng/mL. It also gave a t1/2 [1, 5] of 32.6 min, a tmax [1, 5] of 56.1 min and an AUCinf [1, 6] of 44.4 ng·h/mL. For the same compound, the AUClast [1, 6] was 42.8 ng·h/mL, the Cmax [1, 6] was 26.9 ng/mL and the t1/2 [1, 6] was 30.9 min. For the same compound, the tmax [1, 6] was 79.5 min, the “Mean AUCinf of bendamustine relative to that of the metabolite (times higher)” value ([1]; patients, oral administration) was 88 times and the “exposure relative to that of bendamustine” value ([1]; patients, oral administration) was ~1%. The “AUCinf after oral administration as % of AUCinf after intravenous administration” value ([1]; patients, 90% CI M3: 76%, 98%, M4: 77%, 102%) was 88%, the “% Aeinf” value [2, 7] was 0.081% and the “% Aelast” value [2, 7] was 0.086%. The Aeinf [2, 7] was 0.071 mg, the Aelast [2, 7] was 0.075 mg and the CLR [2, 7] was 1.74 L/h. The “% Aeinf” value [2, 8] was 0.045%, the “% Aelast” value [2, 8] was 0.043% and the Aeinf [2, 8] was 0.039 mg. For the same compound, the Aelast [2, 8] was 0.038 mg, the CLR [2, 8] was 1.66 L/h and the “% Aeinf” value [2, 9] was 0.0039-0.17%. The “% Aelast” value [2, 9] was 0.0028-0.21%, the Aeinf [2, 9] was 0.0034 to 0.15 mg and the Aelast [2, 9] was 0.0025 to 0.18 mg. The CLR [2, 9] was 0.18 to 5.3 L/h, the “% Aeinf” value [2, 10] was 0.109% and the “% Aelast” value [2, 10] was 0.113%. It also gave an Aeinf [2, 10] of 0.105 mg, an Aelast [2, 10] of 0.109 mg and a CLR [2, 10] of 2.83 L/h. The “% Aeinf” value [2, 11] was 0.104%, the “% Aelast” value [2, 11] was 0.104% and the Aeinf [2, 11] was 0.1 mg. The Aelast [2, 11] was 0.1 mg, the CLR [2, 11] was 2.24 L/h and the “% Aeinf” value [2, 12] was 0.034-0.22%. For the same compound, the “% Aelast” value [2, 12] was 0.019-0.21%, the Aeinf [2, 12] was 0.033 to 0.21 mg and the Aelast [2, 12] was 0.019 to 0.21 mg. For the same compound, the CLR [2, 12] was 0.78 to 7.1 L/h and the “percentage of the dose excreted in urine as metabolite” value ([2]; patients, oral administration) was 0.1%.
With `Cn1c(CCCC(=O)O)nc2cc(N(CCCl)CCCl)ccc21` [bendamustine, 4-[5-[bis(2-chloroethyl)amino]-1-methylbenzimidazo-2-yl]butanoic acid] the F ([1]; Bendamustine HCl 110.2 mg orally vs 100 mg intravenously, arithmetic mean, n=11) was 69.0† %, the CL/F ([1]; bendamustine in plasma, Bendamustine HCl 110.2 mg orally, mean, n=12) was 31.7 L/h and the “Mean t1/2” value ([1]; patients, intravenous administration) was “approximately 30 minutes”. The “absolute bioavailability (oral versus intravenous ratio of AUCinf), geometric mean” value ([1]; patients, oral 110.2 mg LFHC (example 2) vs i.v. 100 mg, 90% CI: 55%, 78%) was 66%, the tmax ([1]; patients, oral administration) was “approximately 0.95 hours” and the “tmax, individual values” ([1]; patients, oral administration) was 15 min and 108 min. For the same compound, the “Mean t1/2” value ([1]; patients, oral intake) was “approximately 30 minutes”, the “Cmax after oral dosing as % of Cmax after intravenous dosing” value ([1]; patients, 90% CI: 32%, 54%) was 42% and the “% Aeinf” value [2, 13] was 2.07%. For the same compound, the “% Aelast” value [2, 13] was 2.07%, the Aeinf [2, 13] was 1.874 mg and the Aelast [2, 13] was 1.88 mg. For the same compound, the “% Aeinf” value [2, 14] was 1.22%, the “% Aelast” value [2, 14] was 1.23% and the Aeinf [2, 14] was 1.11 mg. For the same compound, the Aelast [2, 14] was 1.12 mg, the “% Aeinf” value [2, 15] was 0.27-8.8% and the “% Aelast” value [2, 15] was 0.27-8.8%. The Aeinf [2, 15] was 0.24 to 8.0 mg, the Aelast [2, 15] was 0.24 to 8.0 mg and the CLR [2, 15] was 0.06 to 1.4 L/h. The “% Aeinf” value [2, 16] was 2.64%, the “% Aelast” value [2, 16] was 2.66% and the Aeinf [2, 16] was 2.64 mg. For the same compound, the Aelast [2, 16] was 2.66 mg, the CLR [2, 16] was 0.788 L/h and the “% Aeinf” value [2, 17] was 2.23%. For the same compound, the “% Aelast” value [2, 17] was 2.23%, the Aeinf [2, 17] was 2.23 mg and the Aelast [2, 17] was 2.23 mg. For the same compound, the “% Aeinf” value [2, 18] was 0.40-5.8%, the “% Aelast” value [2, 18] was 0.40-5.9% and the Aeinf [2, 18] was 0.40 to 5.8 mg. For the same compound, the Aelast [2, 18] was 0.40 to 5.9 mg, the CLR [2, 18] was 0.18 to 2.0 L/h and the “percentage of the dose excreted in urine unchanged” value ([2]; patients, intravenous) was 2.1%. For the same compound, the “stability of an aqueous solution” value [3] was “significant hydrolytic decomposition”, the “patients with at least 1 adverse event considered related to study drug” value ([4]; intravenous dose) was “no patients” and the “patients with treatment-emergent adverse events” value ([4]; intravenous treatment, 100 mg) was 25%. The safety and tolerability ([4]; intravenous, single dose 100 mg) was “safe and well tolerated”, the “deaths during the study” value ([4]; oral and intravenous) was “No deaths occurred” and the “patients with at least 1 adverse event considered related to study drug” value ([4]; oral dose) was 29%. For the same compound, the “patients with treatment-emergent adverse events” value ([4]; oral treatment, 110.2 mg) was 43% and the safety and tolerability ([4]; oral, single dose 110.2 mg) was “safe and well tolerated”.
